Assay results as given in PubChem BioAssay (NCI).
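Cells were grown in 96-well plates and exposed to each compound for 48 hours at five concentrations; endpoints were interpolated linearly between bracketing concentrations, or set to the highest concentration if not reached. GI50 is the concentration that inhibits growth by half. At the TGI there is no net growth.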

What was measured:
Assay in all cases: growth of human tumour cells (NCI), 48 h
[1] = test system: U251 CNS
[2] = test system: M14 melanoma
[3] = test system: HS 578T breast
[4] = test system: 786-0 renal
[5] = test system: NCI-H522 lung
[6] = test system: UACC-257 melanoma
[7] = test system: EKVX NSCLC
[8] = test system: OVCAR-3 ovarian
[9] = test system: T-47D breast
[10] = test system: SNB-19 CNS
[11] = test system: MDA-N
[12] = test system: MDA-MB-435
[13] = test system: MOLT-4 leukemia
[14] = test system: CCRF-CEM leukemia
[15] = test system: NCI-H23 lung
[16] = test system: UACC-62 melanoma
[17] = test system: UO-31 renal
[18] = test system: SR leukemia

SMILES	TGI [1]	TGI [2]	TGI [3]	TGI [4]	TGI [5]	GI50 [6]	TGI [6]	TGI [7]	TGI [8]	GI50 [9]	TGI [9]	TGI [10]	TGI [11]	TGI [12]	TGI [13]	TGI [14]	TGI [15]	TGI [16]	TGI [17]	TGI [18]
CCOC(=O)Nc1cc2c(c(N)n1)N=C(c1ccc(OC)cc1)CN2	2.47 µM	19.1 µM	0.00932 µM	1.9 µM	0.00636 µM	12.9 µM	36.5 µM	> 100 µM	0.0156 µM	> 100 µM	> 100 µM	0.659 µM	0.0014 µM	0.000324 µM						
O=C1NC(=S)N/C1=C\c1cccs1	> 100 µM	> 100 µM	> 100 µM	> 100 µM	> 100 µM			> 100 µM	> 100 µM		> 100 µM	> 100 µM	> 100 µM	> 100 µM	> 100 µM	> 100 µM	> 100 µM	> 100 µM	> 100 µM	
Cc1c(N2C(=O)C(Cl)C2/C=C/c2ccccc2)c(=O)n(-c2ccccc2)n1C (centres undefined)	21.1 µM	36 µM		67.1 µM	34.5 µM		33 µM	34.4 µM	> 100 µM		> 100 µM		40 µM	28.1 µM	50 µM	48.1 µM	32.8 µM	31.2 µM	92.4 µM	43.9 µM
O=[N+]([O-])c1ccc(CSc2nncc3[nH]cnc23)cc1	> 100 µM	> 100 µM		> 100 µM	> 100 µM		> 100 µM	> 100 µM	> 100 µM		> 100 µM		> 100 µM	> 100 µM	> 100 µM	> 100 µM	> 100 µM	> 100 µM	> 100 µM	> 100 µM
COc1cc2c(cc1O)c(O)cc1c3cc(OC)c(OC)cc3c[n+](C)c21	4.57 µM	> 100 µM	> 27.4 µM	> 100 µM	25.2 µM		> 100 µM	> 100 µM	> 100 µM		> 80.3 µM	> 100 µM	35.7 µM	30.9 µM	40.3 µM	> 100 µM	29.5 µM	> 100 µM	> 100 µM	
O=C(CSc1nnc(-c2ccccn2)s1)N/N=C/c1ccccc1	> 100 µM	> 100 µM	> 100 µM	> 100 µM	> 100 µM		> 100 µM		> 100 µM		> 100 µM	> 100 µM	> 100 µM	> 100 µM	> 100 µM	> 100 µM	> 100 µM	> 100 µM	> 100 µM	> 100 µM
Clc1ccc(CCN(CCc2ccc(Cl)c(Cl)c2)CCN2CCCC2)cc1Cl	2.95 µM	3.1 µM	4.47 µM	3.14 µM	3.2 µM		3.37 µM	4.4 µM	3.2 µM		12.3 µM		3.32 µM	2.75 µM		2.73 µM	3.42 µM	3.06 µM	3 µM	
N#Cc1c(-c2ccc(Cl)cc2)c2c(n(C3OC(CO)C(O)C(O)C3O)c1=S)CCCC2 (centres undefined)	> 100 µM	> 100 µM	> 100 µM	> 100 µM	> 100 µM		> 100 µM	> 100 µM	> 100 µM			> 100 µM	> 100 µM	> 100 µM	87.1 µM	> 100 µM	> 100 µM		> 100 µM	> 100 µM
CC(C)(C)C1=C(Br)C(C(C)(C)C)OP1(=O)O (centres undefined)	> 100 µM	> 100 µM	> 100 µM	> 100 µM	> 100 µM		> 100 µM	> 100 µM	> 100 µM		> 100 µM	> 100 µM	> 100 µM	> 100 µM			> 100 µM	> 100 µM	> 100 µM	
C#CCn1c(=O)c(I)cn(/C(=C/C(=O)OCC)C(=O)OCC)c1=O	32.1 µM	3.61 µM	> 100 µM	3.09 µM	2.37 µM		8.11 µM	10.2 µM	3.37 µM		2.28 µM	34.5 µM	9.41 µM	19.8 µM	1.9 µM	> 57.7 µM	45.5 µM	10.5 µM	2.86 µM	
Cc1ccc(C2(O)CSC(=NC34CC5CC(CC(C5)C3)C4)N2C(P(=O)(O)O)P(=O)(O)O)cc1 (centres undefined)	> 100 µM	> 100 µM	> 100 µM	> 100 µM				> 100 µM	> 100 µM		> 100 µM	> 100 µM	> 100 µM	> 100 µM	> 100 µM		> 100 µM		> 100 µM	> 100 µM
NC(=Nc1ccccc1Cl)c1ccccc1N	> 100 µM	> 100 µM	> 100 µM	> 100 µM	> 100 µM		> 100 µM	> 100 µM	> 100 µM			> 100 µM	> 100 µM	> 100 µM	> 100 µM	> 100 µM	> 100 µM	> 100 µM	> 100 µM	> 100 µM
O=C1C2=Cc3ccccc3OC2(O)Oc2cc3ccccc3cc21 (centres undefined)	> 100 µM	> 100 µM		> 100 µM			> 100 µM	> 100 µM	> 100 µM		> 100 µM		> 100 µM	> 100 µM	> 100 µM	> 100 µM	> 100 µM	> 100 µM		> 100 µM
CNc1ncccc1Nc1cc(=O)n2c3cccnc3n(C)c2c1	> 100 µM	> 100 µM		> 100 µM	> 100 µM		> 100 µM	> 100 µM	> 100 µM		> 100 µM	> 100 µM	> 100 µM	> 100 µM	> 100 µM	> 100 µM	> 100 µM	> 100 µM	> 100 µM	> 100 µM
CC12C=CC(C)(C3C(=O)C4C(C(=O)C31)C1(C)C=CC4(C)S1=O)S2=O (centres undefined)		> 100 µM	> 100 µM	> 100 µM	> 100 µM		> 100 µM	> 100 µM	> 100 µM			> 100 µM	> 100 µM				> 100 µM	> 100 µM	> 100 µM	
COc1ccc2nc(N/N=C/c3sccc3C)cc(C)c2c1	73.5 µM	25.3 µM	55.3 µM	27.6 µM			32.3 µM	55.4 µM	45.8 µM		> 100 µM	> 100 µM	39.4 µM	43.9 µM	50.7 µM	67 µM	28.9 µM	27.1 µM	65.1 µM	
CNC1(c2cc3ccccc3s2)CCCCC1	33.8 µM	35.7 µM		39.7 µM	29.1 µM		35.1 µM	93.8 µM	> 100 µM			> 100 µM	39.9 µM	36.6 µM	> 100 µM		> 100 µM	49 µM	> 100 µM	67.3 µM
C=CCCON(C(=O)OC(C)(C)C)c1ccccc1	> 100 µM	> 100 µM	> 100 µM	> 100 µM	> 100 µM		> 100 µM	> 100 µM	> 100 µM		> 100 µM	> 100 µM	> 100 µM	> 100 µM	> 100 µM	> 100 µM	> 100 µM	> 100 µM	> 100 µM	
N[C@@H]1CCN(c2c(F)cc3c(=O)c(C(=O)O)cn4c3c2Oc2c-4ccc3c2ccc2ccccc23)C1	10.5 µM	> 100 µM	> 100 µM	39.6 µM	> 100 µM		> 100 µM	> 100 µM	> 100 µM			10.4 µM	> 100 µM	> 100 µM	> 100 µM		> 100 µM	> 100 µM	> 100 µM	> 100 µM
CC1(C)C2CCC1(C)C(N/C(Sc1ccccc1)=C(/C(Cl)=C(Cl)Cl)[N+](=O)[O-])C2 (centres undefined)	23.5 µM	25.9 µM		26.9 µM			27.4 µM	57.8 µM	17.7 µM		31.2 µM	43.9 µM	27.6 µM	25.9 µM	> 100 µM		27.6 µM	21.3 µM	26 µM	
COc1ccc(-c2c(C(C)=O)c(-c3ccccc3)n(C3OC(CO)C(O)C(O)C3O)c(=S)c2C#N)cc1 (centres undefined)	> 100 µM	> 100 µM		> 100 µM	> 100 µM		> 100 µM	> 100 µM	> 100 µM		> 100 µM	> 100 µM	> 100 µM	> 100 µM	> 100 µM	> 100 µM	> 100 µM	> 100 µM	> 100 µM	
CC1(C)[C@@H]2CC[C@]1(C)[C@H](OC(=O)CSC#N)C2	> 100 µM	> 100 µM	> 100 µM	34.1 µM	> 100 µM		> 100 µM	> 100 µM	> 100 µM		> 100 µM	> 100 µM	> 100 µM	> 100 µM			> 100 µM	> 100 µM	> 100 µM	
OC(CNc1ccccn1)c1ccccc1 (centres undefined)	> 100 µM	> 100 µM	> 100 µM	> 100 µM	> 100 µM		> 100 µM	> 100 µM	> 100 µM		> 100 µM	> 100 µM	> 100 µM	> 100 µM	> 100 µM	> 100 µM	> 100 µM	> 100 µM	> 100 µM	
Cc1ccc(-n2[nH]nc(C(N)=O)c2=O)cc1	> 100 µM	> 100 µM	> 100 µM	> 100 µM	> 100 µM		> 100 µM	> 100 µM	> 100 µM		> 100 µM	> 100 µM	> 100 µM	> 100 µM	> 100 µM	> 100 µM	> 100 µM	> 100 µM	> 100 µM	
C=C(C)C1CCC(C(=O)O)CC1 (centres undefined)	> 100 µM	> 100 µM	> 100 µM	> 100 µM	> 100 µM		> 100 µM	> 100 µM	> 100 µM		> 100 µM	> 100 µM	> 100 µM	> 100 µM	> 100 µM	> 100 µM	> 100 µM	> 100 µM	> 100 µM	
CN(/N=C/c1ccc(C(=O)O)cc1)C1=NCCCCN1	> 100 µM	> 100 µM		> 100 µM	> 100 µM		> 100 µM	> 100 µM	> 100 µM		> 100 µM	> 100 µM	> 100 µM	> 100 µM	> 100 µM	> 100 µM	> 100 µM	> 100 µM	> 100 µM	> 100 µM
CN(C)CCOc1ccc([N+](=O)[O-])c2cccnc12	> 100 µM	> 100 µM	> 100 µM	> 100 µM	> 100 µM		> 100 µM		> 100 µM		> 100 µM	> 100 µM	> 100 µM	> 100 µM	> 100 µM	> 100 µM	> 100 µM	> 100 µM	> 100 µM	> 100 µM
O=c1[nH]c2cc(C(F)(F)F)ccc2nc1C(F)(F)F	> 100 µM	> 100 µM		> 100 µM	99.1 µM		90.6 µM	> 100 µM	58 µM		> 100 µM	> 100 µM	> 100 µM	85.2 µM	> 100 µM	> 100 µM	94.2 µM	> 100 µM	> 100 µM	> 100 µM
S=C(N/N=C/c1ccccn1)N1CCCCC1	> 43.1 µM	1.36 µM	45.1 µM	7.08 µM	25.7 µM		0.188 µM	17.4 µM	26.4 µM			> 100 µM	> 100 µM	> 100 µM			> 45.7 µM	0.575 µM	15.2 µM	0.217 µM
